According to PMC10290137, “Systems-level analyses of protein-protein interaction network dysfunctions via epichaperomics identify cancer-specific mechanisms of stress adaptation” (Nature Communications, 2023):
Like-named read-outs stand apart in the source and are kept apart here. One block for each molecule: values may come before it.

Legend:
[1] = test system: T1, HSC70; experiment: CETSA in MDA-MB-468 cells and homogenates; the value is the IC50 for epiHSP70s disruption in cancer cells; type: cell-based
T1 construct: gene HSPA8; endogenous epiHSP70 epichaperome assemblies in human cancer cells (probably MDA-MB-468); HSC70/HSP70 pool, no recombinant construct

[2] = test system: T1, HSC70; experiment: as above; type: cell-based; remark: listed apart in the source
Text: CETSA in MDA-MB-468 cells and homogenates; the value is the IC50 for epiHSP70s disruption in cancer cells (b12) on HSC70 | three evaluated YKs—YK5, YK198 and LSI137—we observed in CETSA, performed both in cells and cell homogenates, a significant thermal stabilization

[3] = target: T2, HSC70 (Homo sapiens, UniProt P11142); experiment: reconstituted purified HSC70: fluorescence anisotropy peptide release ([…] YK198) and stopped-flow MABA-ATP binding ([…]); also CETSA; type: biochemical
T2 construct: gene HSPA8
T2 sequence (P11142 2-646): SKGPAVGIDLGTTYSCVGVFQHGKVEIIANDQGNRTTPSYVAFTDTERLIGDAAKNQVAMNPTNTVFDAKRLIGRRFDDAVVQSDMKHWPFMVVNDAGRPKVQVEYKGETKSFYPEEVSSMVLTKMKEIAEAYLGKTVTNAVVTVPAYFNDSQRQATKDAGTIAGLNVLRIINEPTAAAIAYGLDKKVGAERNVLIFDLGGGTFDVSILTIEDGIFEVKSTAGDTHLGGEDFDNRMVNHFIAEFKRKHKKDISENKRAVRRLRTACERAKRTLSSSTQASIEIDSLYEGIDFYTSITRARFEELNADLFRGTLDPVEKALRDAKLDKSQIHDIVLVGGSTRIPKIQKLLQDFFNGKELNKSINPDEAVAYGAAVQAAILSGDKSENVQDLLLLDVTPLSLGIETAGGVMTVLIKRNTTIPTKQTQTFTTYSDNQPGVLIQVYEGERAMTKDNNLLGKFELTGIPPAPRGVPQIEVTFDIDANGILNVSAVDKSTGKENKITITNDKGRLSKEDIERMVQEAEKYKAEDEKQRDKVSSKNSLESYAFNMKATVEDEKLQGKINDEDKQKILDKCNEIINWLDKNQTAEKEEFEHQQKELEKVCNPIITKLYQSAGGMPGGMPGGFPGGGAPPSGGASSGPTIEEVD

IC50 [1]: 60 nM
SMILES: COc1cccc(COc2nc(N3CCC(N(C)C)C3)ncc2Sc2ccc(N)nc2)c1 (stereo not drawn) [LSI137]

IC50 [2]: 5000 nM
SMILES: C=CC(=O)Nc1cc(N)nc(Sc2c(OC)nc(N3CCN(C)CC3)nc2OC)n1 [YK5]

SMILES: CN1CCN(c2ncc(Sc3ccc(N)nc3)c(OCc3ccccc3)n2)CC1 [YK198]
reconstituted purified HSC70: fluorescence anisotropy peptide release (100 uM YK) [3]: biochemical effect of YKs on HSP70s manifests majorly at the allosteric release of the interactor protein, impairing its release
